In article PMC5218480 (PLoS ONE, 2017):

Test system: MV-4-11 cells
Assay: Gene expression microarray analysis (Affymetrix PrimeView) and GSEA
Type: cell-based, human
Set-up: RFU PODN (11730768_x_at) / Fold change /veh PODN (11730768_x_at) / RFU LINC00158 (11744669_a_at) / Fold change /veh LINC00158 (11744669_a_at) / RFU DUSP10 (11751237_a_at) / Fold change /veh DUSP10 (11751237_a_at) / RFU ID3 (11757404_x_at) / Fold change /veh ID3 (11757404_x_at) / RFU PLEKHG5 (11737974_s_at) / Fold change /veh PLEKHG5 (11737974_s_at) / RFU LRRC4B (11730491_at) / Fold change /veh LRRC4B (11730491_at) / RFU GIMAP4 (11747438_a_at) / Fold change /veh GIMAP4 (11747438_a_at) / RFU KRT8 (11758183_x_at) / Fold change /veh KRT8 (11758183_x_at) / RFU CNN1 (11734310_a_at) / Fold change /veh CNN1 (11734310_a_at) / RFU VPS37D (11726825_at) / Fold change /veh VPS37D (11726825_at) / RFU C10orf10 (11716522_x_at) / Fold change /veh C10orf10 (11716522_x_at) / RFU KIR2DL2 /// KIR2DL4 /// KIR2DL5A /// KIR2DL5B /// KIR2DS1 /// KIR2DS2 /// KIR2DS3 /// KIR2DS4 /// KIR3DL3 /// KIR3DL3 /// KIR3DS1 (11738374_at) / Fold change /veh KIR2DL2 /// KIR2DL4 /// KIR2DL5A /// KIR2DL5B /// KIR2DS1 /// KIR2DS2 /// KIR2DS3 /// KIR2DS4 /// KIR3DL3 /// KIR3DL3 /// KIR3DS1 (11738374_at) / RFU C1QL1 (11718748_at) / Fold change /veh C1QL1 (11718748_at) / RFU TMPRSS4 (11747572_a_at) / Fold change /veh TMPRSS4 (11747572_a_at) / RFU HAMP (11756126_x_at) / Fold change /veh HAMP (11756126_x_at) / RFU RNFT2 (11725882_a_at) / Fold change /veh RNFT2 (11725882_a_at) / RFU NR4A2 (11747474_a_at) / Fold change /veh NR4A2 (11747474_a_at) / RFU ABCC12 (11746883_a_at) / Fold change /veh ABCC12 (11746883_a_at) / RFU TMEM136 (11760407_x_at) / Fold change /veh TMEM136 (11760407_x_at) / RFU CLDN22 /// WWC2 (11732394_at) / Fold change /veh CLDN22 /// WWC2 (11732394_at) / RFU HLA-DPB1 (11760878_x_at) / Fold change /veh HLA-DPB1 (11760878_x_at) / RFU SPINT1 (11716480_a_at) / Fold change /veh SPINT1 (11716480_a_at) / RFU GAP43 (11754022_s_at) / Fold change /veh GAP43 (11754022_s_at) / RFU A4GNT (11735810_at) / Fold change /veh A4GNT (11735810_at) / RFU PRB3 (11715151_x_at) / Fold change /veh PRB3 (11715151_x_at) / RFU TUBB4B (11761932_at) / Fold change /veh TUBB4B (11761932_at) / RFU CAPN14 (11732068_a_at) / Fold change /veh CAPN14 (11732068_a_at) / RFU TMCC2 (11721928_a_at) / Fold change /veh TMCC2 (11721928_a_at) / RFU IRGQ (11745062_a_at) / Fold change /veh IRGQ (11745062_a_at) / RFU FAM174B (11720279_a_at) / Fold change /veh FAM174B (11720279_a_at) / RFU TMPRSS4 (11748680_a_at) / Fold change /veh TMPRSS4 (11748680_a_at) / RFU FAM212B (11763350_a_at) / Fold change /veh FAM212B (11763350_a_at) / RFU PLEKHG5 (11743358_a_at) / Fold change /veh PLEKHG5 (11743358_a_at) / RFU ZSCAN30 (11745921_a_at) / Fold change /veh ZSCAN30 (11745921_a_at) / RFU CMKLR1 (11741424_a_at) / Fold change /veh CMKLR1 (11741424_a_at) / RFU LOC101060620 /// MAPK8IP1 (11723275_at) / Fold change /veh LOC101060620 /// MAPK8IP1 (11723275_at) / RFU SPTSSB (11747773_x_at) / Fold change /veh SPTSSB (11747773_x_at) / RFU PRSS12 (11739890_at) / Fold change /veh PRSS12 (11739890_at) / RFU BIN1 (11741810_x_at) / Fold change /veh BIN1 (11741810_x_at) / RFU WNT11 (11732464_a_at) / Fold change /veh WNT11 (11732464_a_at) / RFU C10orf10 (11716521_a_at) / Fold change /veh C10orf10 (11716521_a_at) / RFU C5orf56 (11738089_at) / Fold change /veh C5orf56 (11738089_at) / RFU CYB561 (11721691_x_at) / Fold change /veh CYB561 (11721691_x_at) / RFU ANKRD19P (11752326_a_at) / Fold change /veh ANKRD19P (11752326_a_at) / RFU OR2T12 /// OR2T33 /// OR2T8 (11738714_s_at) / Fold change /veh OR2T12 /// OR2T33 /// OR2T8 (11738714_s_at) / RFU VCAN (11748164_a_at) / Fold change /veh VCAN (11748164_a_at) / RFU JSRP1 (11732532_at) / Fold change /veh JSRP1 (11732532_at) / RFU KRTAP10-11 (11738290_x_at) / Fold change /veh KRTAP10-11 (11738290_x_at) / RFU MYO3A (11730013_a_at) / Fold change /veh MYO3A (11730013_a_at) / RFU EBF3 (11725865_a_at) / Fold change /veh EBF3 (11725865_a_at) / RFU CAMK2N1 (11719241_x_at) / Fold change /veh CAMK2N1 (11719241_x_at) / RFU C5orf56 (11738088_a_at) / Fold change /veh C5orf56 (11738088_a_at) / RFU OLFML3 (11715873_a_at) / Fold change /veh OLFML3 (11715873_a_at) / RFU LOC100653217 /// NTM (11731650_a_at) / Fold change /veh LOC100653217 /// NTM (11731650_a_at) / RFU MAPK11 (11762145_a_at) / Fold change /veh MAPK11 (11762145_a_at) / RFU FIZ1 (11724087_x_at) / Fold change /veh FIZ1 (11724087_x_at) / RFU OASL (11726364_x_at) / Fold change /veh OASL (11726364_x_at) / RFU SOX15 (11748057_x_at) / Fold change /veh SOX15 (11748057_x_at) / RFU CD79A (11719716_a_at) / Fold change /veh CD79A (11719716_a_at) / RFU HIST1H1D (11736915_at) / Fold change /veh HIST1H1D (11736915_at) / RFU CASKIN2 (11723855_a_at) / Fold change /veh CASKIN2 (11723855_a_at) / RFU LOC730098 (11760151_x_at) / Fold change /veh LOC730098 (11760151_x_at) / RFU OR4N2 (11742367_at) / Fold change /veh OR4N2 (11742367_at) / RFU PRRT2 (11749266_a_at) / Fold change /veh PRRT2 (11749266_a_at) / RFU SNX32 (11753110_a_at) / Fold change /veh SNX32 (11753110_a_at) / RFU CDHR5 (11726645_a_at) / Fold change /veh CDHR5 (11726645_a_at) / RFU RCAN1 (11760418_a_at) / Fold change /veh RCAN1 (11760418_a_at) / RFU FAM167A (11723789_a_at) / Fold change /veh FAM167A (11723789_a_at) / RFU FAM26E (11764081_at) / Fold change /veh FAM26E (11764081_at) / RFU ISYNA1 (11749810_s_at) / Fold change /veh ISYNA1 (11749810_s_at) / RFU ACY1 (11761880_at) / Fold change /veh ACY1 (11761880_at) / RFU 11764098_at / Fold change /veh 11764098_at / RFU SAMD14 (11745864_x_at) / Fold change /veh SAMD14 (11745864_x_at) / RFU NPB (11741838_a_at) / Fold change /veh NPB (11741838_a_at) / RFU TMPRSS6 (11731388_a_at) / Fold change /veh TMPRSS6 (11731388_a_at) / RFU KRTAP10-2 (11738614_at) / Fold change /veh KRTAP10-2 (11738614_at) / RFU ARHGAP8 /// PRR5-ARHGAP8 (11727945_x_at) / Fold change /veh ARHGAP8 /// PRR5-ARHGAP8 (11727945_x_at) / RFU KRTAP5-7 /// NADSYN1 (11734609_at) / Fold change /veh KRTAP5-7 /// NADSYN1 (11734609_at) / RFU RASL12 (11751679_a_at) / Fold change /veh RASL12 (11751679_a_at) / RFU CDKN2B (11736163_a_at) / Fold change /veh CDKN2B (11736163_a_at) / RFU PRF1 (11729649_at) / Fold change /veh PRF1 (11729649_at) / RFU, ZNF638 /// ZNF638-IT1 / Fold change vs veh, ZNF638 /// ZNF638-IT1 / RFU, PANK3 / Fold change vs veh, PANK3 / RFU, SH3YL1 / Fold change vs veh, SH3YL1 / RFU, ZEB2 / Fold change vs veh, ZEB2 / RFU, NRIP1 / Fold change vs veh, NRIP1 / RFU, PTTG1IP / Fold change vs veh, PTTG1IP / RFU, CAPN2 / Fold change vs veh, CAPN2 / RFU, MED14 / Fold change vs veh, MED14 / RFU, SNORA58 / Fold change vs veh, SNORA58 / RFU, C1orf63 / Fold change vs veh, C1orf63 / RFU, LRRFIP1 / Fold change vs veh, LRRFIP1 / RFU, NDUFAF7 / Fold change vs veh, NDUFAF7 / RFU, SLC12A2 / Fold change vs veh, SLC12A2 / RFU, IBTK / Fold change vs veh, IBTK / RFU, ESF1 / Fold change vs veh, ESF1 / Fold change vs veh, TMEM50B / RFU, TAOK1 / Fold change vs veh, TAOK1 / RFU, ACBD3 / Fold change vs veh, ACBD3 / RFU, TMA16 / Fold change vs veh, TMA16 / RFU, RWDD3 / Fold change vs veh, RWDD3 / RFU, BCAT1 / Fold change vs veh, BCAT1 / RFU, EDEM3 / Fold change vs veh, EDEM3 / RFU, TMEM33 / Fold change vs veh, TMEM33 / RFU, WDR75 / Fold change vs veh, WDR75 / RFU, AHCTF1 / Fold change vs veh, AHCTF1 / RFU, TFRC / Fold change vs veh, TFRC / RFU, ZDHHC17 / Fold change vs veh, ZDHHC17 / RFU, NOM1 / Fold change vs veh, NOM1 / RFU, ARL8B / Fold change vs veh, ARL8B / RFU, ZBTB11 / Fold change vs veh, ZBTB11 / RFU, TAMM41 / Fold change vs veh, TAMM41 / RFU, KIAA1704 /// LOC100996395 / Fold change vs veh, KIAA1704 /// LOC100996395 / RFU, ING1 / Fold change vs veh, ING1 / RFU, TRMT61B / Fold change vs veh, TRMT61B / RFU, FUBP3 / Fold change vs veh, FUBP3 / RFU, TP53 / Fold change vs veh, TP53 / RFU, TNKS2 / Fold change vs veh, TNKS2 / RFU, ZFP14 / Fold change vs veh, ZFP14 / RFU, ACTR2 / Fold change vs veh, ACTR2 / RFU, PPP3R1 / Fold change vs veh, PPP3R1 / RFU, PIK3R1 / Fold change vs veh, PIK3R1 / RFU, HNRNPA1 / Fold change vs veh, HNRNPA1 / RFU, RNF170 / Fold change vs veh, RNF170 / RFU, ZNF28 / Fold change vs veh, ZNF28 / RFU, RNGTT / Fold change vs veh, RNGTT / RFU, OGT / Fold change vs veh, OGT / RFU, BRD1 / Fold change vs veh, BRD1 / RFU, MARS / Fold change vs veh, MARS / RFU, ZNF655 / Fold change vs veh, ZNF655 / RFU, FAHD1 / Fold change vs veh, FAHD1 / RFU, BDP1 / Fold change vs veh, BDP1 / RFU, LRRCC1 / Fold change vs veh, LRRCC1 / RFU, ARID1A / Fold change vs veh, ARID1A / RFU, ZNF146 / Fold change vs veh, ZNF146 / RFU, ZNF330 / Fold change vs veh, ZNF330 / RFU, GPN3 / Fold change vs veh, GPN3 / RFU, C9orf123 / Fold change vs veh, C9orf123 / RFU, N4BP2L2 / Fold change vs veh, N4BP2L2 / RFU, ARFIP1 / Fold change vs veh, ARFIP1 / RFU, FAM179B / Fold change vs veh, FAM179B / RFU, BCL10 / Fold change vs veh, BCL10 / RFU, UHRF1BP1L / Fold change vs veh, UHRF1BP1L / RFU, BET1 / Fold change vs veh, BET1 / RFU, CNOT2 / Fold change vs veh, CNOT2 / RFU, ZNF268 / Fold change vs veh, ZNF268 / Fold change vs veh, ZNF507 / RFU, DGCR2 / Fold change vs veh, DGCR2 / RFU, WDSUB1 / Fold change vs veh, WDSUB1 / Fold change vs veh, HSP90B1 /// MIR3652 / RFU, ADSS / Fold change vs veh, ADSS / RFU, GK / Fold change vs veh, GK / RFU, ZNF148 / Fold change vs veh, ZNF148 / RFU, TAF9 / Fold change vs veh, TAF9 / RFU, SLC1A5 / Fold change vs veh, SLC1A5 / RFU, SLMO2 / Fold change vs veh, SLMO2 / RFU, ABCC4 / Fold change vs veh, ABCC4 / RFU, LOC101060439 /// RAP1B / Fold change vs veh, LOC101060439 /// RAP1B / RFU, RFX7 / Fold change vs veh, RFX7 / RFU, GTPBP10 / Fold change vs veh, GTPBP10 / RFU, CNEP1R1 / Fold change vs veh, CNEP1R1 / RFU, BIVM-ERCC5 /// ERCC5 / Fold change vs veh, BIVM-ERCC5 /// ERCC5 / RFU, ILF3 / Fold change vs veh, ILF3 / RFU 11762660_at / Fold change /veh 11762660_at / RFU VCAN (11757783_s_at) / Fold change /veh VCAN (11757783_s_at) / RFU DDX43 (11728927_at) / Fold change /veh DDX43 (11728927_at) / RFU KRT8 (11758188_x_at) / Fold change /veh KRT8 (11758188_x_at) / RFU NKD1 (11759106_at) / Fold change /veh NKD1 (11759106_at) / RFU SRD5A1 (11742802_a_at) / Fold change /veh SRD5A1 (11742802_a_at) / RFU TPSAB1 /// TPSB2 (11721975_s_at) / Fold change /veh TPSAB1 /// TPSB2 (11721975_s_at) / RFU GSTM3 (11746129_a_at) / Fold change /veh GSTM3 (11746129_a_at) / RFU IL23R (11737362_x_at) / Fold change /veh IL23R (11737362_x_at) / RFU TMEM51 (11727254_a_at) / Fold change /veh TMEM51 (11727254_a_at) / RFU PIWIL2 (11732686_x_at) / Fold change /veh PIWIL2 (11732686_x_at) / RFU ORM1 (11744905_x_at) / Fold change /veh ORM1 (11744905_x_at) / RFU CCDC152 (11743942_at) / Fold change /veh CCDC152 (11743942_at) / RFU ECM1 (11717891_a_at) / Fold change /veh ECM1 (11717891_a_at) / RFU IL23R (11748794_a_at) / Fold change /veh IL23R (11748794_a_at) / RFU TNFAIP8L3 (11732012_x_at) / Fold change /veh TNFAIP8L3 (11732012_x_at) / RFU MBOAT4 (11741988_at) / Fold change /veh MBOAT4 (11741988_at) / RFU 11764193_at / Fold change /veh 11764193_at / RFU TMEM53 (11763286_at) / Fold change /veh TMEM53 (11763286_at) / RFU MAGEB2 (11727129_at) / Fold change /veh MAGEB2 (11727129_at) / RFU TMEM200A (11744735_a_at) / Fold change /veh TMEM200A (11744735_a_at) / RFU CCDC152 (11751479_a_at) / Fold change /veh CCDC152 (11751479_a_at) / RFU FAM211A (11726209_a_at) / Fold change /veh FAM211A (11726209_a_at) / RFU RGS16 (11746705_a_at) / Fold change /veh RGS16 (11746705_a_at) / RFU VCAN (11755009_s_at) / Fold change /veh VCAN (11755009_s_at) / RFU RHOB (11743442_s_at) / Fold change /veh RHOB (11743442_s_at) / RFU RGS16 (11720943_a_at) / Fold change /veh RGS16 (11720943_a_at) / RFU RGS16 (11720944_at) / Fold change /veh RGS16 (11720944_at) / RFU, VPS4B / Fold change vs veh, VPS4B / RFU, CREB1 / Fold change vs veh, CREB1 / RFU, DNAJC13 / Fold change vs veh, DNAJC13 / RFU, GNAQ / Fold change vs veh, GNAQ / RFU, CDK5R1 / Fold change vs veh, CDK5R1 / RFU, ZRANB3 / Fold change vs veh, ZRANB3 / RFU, CUL4A / Fold change vs veh, CUL4A / RFU, CCNY / Fold change vs veh, CCNY / RFU, UFL1 / Fold change vs veh, UFL1 / RFU, COG3 / Fold change vs veh, COG3 / RFU, DIAPH2 / Fold change vs veh, DIAPH2 / RFU, SKA2 / Fold change vs veh, SKA2 / RFU, AFF3 / Fold change vs veh, AFF3 / RFU, LMF1 / Fold change vs veh, LMF1 / RFU, IPO11 / Fold change vs veh, IPO11 / RFU, DFFB / Fold change vs veh, DFFB / RFU, FOXP1 / Fold change vs veh, FOXP1 / RFU, CARD8 / Fold change vs veh, CARD8 / RFU, STRN3 / Fold change vs veh, STRN3 / RFU, ADK / Fold change vs veh, ADK / RFU, RASSF2 / Fold change vs veh, RASSF2 / RFU, WIPF1 / Fold change vs veh, WIPF1 / RFU, LARP1B / Fold change vs veh, LARP1B / RFU, RASA1 / Fold change vs veh, RASA1 / RFU, RB1 / Fold change vs veh, RB1 / RFU, PPFIA1 / Fold change vs veh, PPFIA1 / RFU, MAT2A / Fold change vs veh, MAT2A / RFU, CCT5 / Fold change vs veh, CCT5 / RFU, WDR92 / Fold change vs veh, WDR92 / RFU, CUX1 / Fold change vs veh, CUX1 / RFU, TTC7A / Fold change vs veh, TTC7A / RFU, TMEM135 / Fold change vs veh, TMEM135 / RFU, DEPTOR / Fold change vs veh, DEPTOR / RFU, CPM / Fold change vs veh, CPM / RFU, DNAJB6 / Fold change vs veh, DNAJB6 / RFU, CACNA2D3 / Fold change vs veh, CACNA2D3 / RFU, DTX4 / Fold change vs veh, DTX4 / RFU, TFCP2 / Fold change vs veh, TFCP2 / RFU, GMCL1 /// GMCL1P1 / Fold change vs veh, GMCL1 /// GMCL1P1 / RFU, AEBP2 / Fold change vs veh, AEBP2 / RFU, SNHG1 /// SNORD22 /// SNORD25 /// SNORD26 /// SNORD27 /// SNORD28 /// SNORD29 /// SNORD31 / Fold change vs veh, SNHG1 /// SNORD22 /// SNORD25 /// SNORD26 /// SNORD27 /// SNORD28 /// SNORD29 /// SNORD31 / Fold change (Aza/veh), C12orf56 (ProbeSet 11735607_a_at) / Fold change (ACY-1035/veh), C12orf56 (ProbeSet 11735607_a_at) / Fold change (Aza/veh), FGFR1OP (ProbeSet 11751329_s_at) / Fold change (ACY-1035/veh), FGFR1OP (ProbeSet 11751329_s_at) / Fold change (Aza/veh), VPS36 (ProbeSet 11739960_a_at) / Fold change (ACY-1035/veh), VPS36 (ProbeSet 11739960_a_at) / RFU SYPL1 (11715823_x_at) / Fold change /veh SYPL1 (11715823_x_at) / RFU IGFBP7 (11715501_s_at) / Fold change /veh IGFBP7 (11715501_s_at) / RFU REEP3 (11722064_at) / Fold change /veh REEP3 (11722064_at) / RFU IGLL1 (11728026_x_at) / Fold change /veh IGLL1 (11728026_x_at): dose or concentration left out as unconfirmed
Conditions: ProbeSet 11724877_a_at; LIST D

Nc1ncn([C@@H]2O[C@H](CO)[C@@H](O)[C@H]2O)c(=O)n1 [azacitidine]
Fold change vs veh, AEBP2: 0.82
